The subject of data set [1] is A. fumigatus (ATCC 46645). In kind it is cell-based, Aspergillus fumigatus. Conditions: for Antifungal activity lacking up to: medium and time not given. How it is done: (§1) Susceptibility tests were performed according to CLSI guidelines with slight modifications. In brief, 96-well plates (Greiner Bio-One GmbH) were prepared with 100 μL of 2 × AMM (Aspergillus minimal medium) or 0.2 × Potato Dextrose Broth (PDB) containing 3 × 10^4 spores of A. fumigatus (ATCC 46645) per well. An amount of 100μL antifungal, dissolved in water, was added to get a final concentration of 1 × AMM/0.1 × PDB medium and antifungal concentration ranging from 0.031–16 μg/mL.

The test system of data set [2] is A. fumigatus (ATCC 46645). In kind it is cell-based, Aspergillus fumigatus. How it is done:
as §1

Data set [3] has as its system A. fumigatus mutant strain ΔsidA/ΔftrA. Briefly: Growth promotion assay. The class given is cell-based, Aspergillus fumigatus. To be noted: 72 h, 37 °C; for Concentration of growth induction / utilization / Concentration of sporulation: iron-depleted AMM, 0.1–50 µM tested; for Growth promotion (in words): visually assessed. The text has this:
To assess the capability of A. fumigatus to utilize the modified siderophores, a mutant strain (ΔsidA/ΔftrA) that lacks the genes sidA and ftrA was used. These mutations impair both siderophore-mediated iron acquisition and reductive iron assimilation, in other words, high-affinity iron acquisition. If the activity of externally supplied siderophore was still intact, similar growth to [Fe]TAFC should be observed, however, in the case of growth reduction, it cannot be distinguished from antifungal activity. Spores (10^4) were point inoculated on solid 0.5 mL of AMM [26] in 24-well plates containing increasing concentrations of iron labelled siderophore ranging from 0.1–50 μM. Plates were incubated for 72 h at 37 °C in a humidity chamber and visually assessed.

The conditions of data set [4]: cited from earlier work.
Data set [5] is classed as physicochemical. Conditions: pH 7.4. As for the experimental part:
Aliquots of 50 µL of ^68Ga-labelled conjugate (~5 µM) were added to 450 µL of phosphate-buffered saline pH 7.4 (PBS) and 500 µL of Octanol into a 1.5 mL Eppendorf tube. The mixture was vigorously shaken for 20 min at 1400 rpm in a standard vortex (MS 3, IKA, Staufen, Germany) and hereafter, 200 µL of each phase removed and measured in a gamma counter (2480 automatic gamma counter Wizard2 3’’, Perkin Elmer, Waltham, MA, USA) LogD was calculated as the ratio of octanol/water phase using Excel. (n = 3, six technical replicates)

The test system of a further data set is A. fumigatus. The experiment in a line: Uptake assay of 68Ga-labelled conjugates in A. fumigatus. The class given is cell-based, Aspergillus fumigatus. To be noted: iron-depleted AMM, 45 min, 37 °C. How it is done:
Assays were performed as previously described. Briefly, uptake and competition assays were performed with A. fumigatus in iron-depleted and iron-replete Aspergillus minimal media (AMM), using a 96-well MultiScreen Filter Plates HTS (1 μm glass fiber filter, Merck Millipore, Darmstadt, Germany). Compounds were incubated for 45 min at 37 °C and filters measured in a gamma counter. Competition assays were performed in the same way except for pre-incubation with the iron-containing antifungal conjugates for 15 min, resulting in a competition at the MirB transporter to show specific binding to MirB.

In brackets after ≈: the same amount, converted by molar mass. Like-named read-outs stand apart in the source and are kept apart here. Square brackets hold non-standard residues; d marks the D form. Ends that are not written are not given here. Peptide text beside a SMILES is read from it.

In the case of `CC(=O)N[C@H](CCCNC(=N)N)C(=O)N[C@H](CCCCN)C(=O)N[C@H](CCCCN)C(=O)N[C@H](Cc1c[nH]c2ccccc12)C(=O)N[C@H](Cc1ccccc1)C(=O)N[C@H](Cc1c[nH]c2ccccc12)C(N)=O` [H2N-D-PAF26-Ac] (Ac-[dR][dK][dK][dW][dF][dW]-NH2), the “MIC 24 h” value in data set [1] (AMM, 37 °C, 24 h) is above 16 mg/L; in data set [1] (ATCC 46645, 24 h) it was above 16.1 µM; in data set [2] (0.1 × PDB, 37 °C, 24 h) it was 16 mg/L. Also, the “MIC 48 h” value in data set [1] (AMM, 37 °C) is above 16 mg/L; in data set [2] (0.1 × PDB, 37 °C) it was above 16 mg/L.
On to `CC(=O)NC1CCCN(O)C(=O)/C=C(/C)CCOC(=O)C(NC(=O)CCC(=O)N[C@@H](CC(N)=O)C(=O)N[C@@H](CC(C)C)C(=O)N[C@H](Cc2ccccc2)C(=O)O)CCCN(O)C(=O)/C=C(/C)CCOC(=O)C(NC(C)=O)CCCN(O)C(=O)/C=C(/C)CCOC1=O` (some centres unmarked) [[Fe]DAFC-succ-NLF], for which the “MIC 24 h” value in data set [1] (AMM, 37 °C, 24 h) was above 16 mg/L. Moreover, in data set [1] (AMM, 37 °C), the “MIC 48 h” value was above 16 mg/L. The “MIC 24 h” value in data set [1] (ATCC 46645, 24 h) is above 12.0 µM. Moreover, the “Antifungal activity lacking up to” value in data set [1] is above 16 µg/mL. Moreover, in data set [3], the “Concentration of growth induction / utilization” value fell in the range of 10 to 50 µM and the “Growth promotion (in words)” value was “very low growth promotion”.
Take H-Asn-Leu-[dF]-OH [NLF]: in data set [1] (AMM, 0.031–16 µg/mL tested), the “Antifungal activity (in words)” value is on record as “lacked antifungal potential”.
With RKKWFW [HOOC-L-PAF26-NH2], the “MIC 24 h” value was above 16 mg/L in data set [1] (AMM, 37 °C, 24 h) and above 16.8 µM in data set [1] (ATCC 46645, 24 h). The “MIC 48 h” value in data set [1] (AMM, 37 °C) is above 16 mg/L.
On to triacetylfusarinine C [[^68Ga]Ga-TAFC], for which the “Biodistribution Blood 30 min” value in data set [4] (BALB/c mice, 30 min, blood) is listed as 1.60 ± 0.37 %ID/g. For the same compound, the “Biodistribution Femur 30 min” value in data set [4] (BALB/c mice, 30 min, femur) is 0.51 ± 0.79 %ID/g. Besides, in data set [4] (BALB/c mice, 30 min, heart), the “Biodistribution Heart 30 min” value is 0.67 ± 0.16 %ID/g. Also, the “Biodistribution Intestine 30 min” value in data set [4] (BALB/c mice, 30 min, intestine) was 1.71 ± 10.04 %ID/g. In addition, the “Biodistribution Kidneys 30 min” value in data set [4] (BALB/c mice, 30 min, kidneys) was 5.51 ± 1.22 %ID/g. In addition, the “Biodistribution Liver 30 min” value in data set [4] (BALB/c mice, 30 min, liver) is given as 0.70 ± 0.04 %ID/g. For the same compound, the “Biodistribution Lung 30 min” value in data set [4] (BALB/c mice, 30 min, lung) was 1.54 ± 0.27 %ID/g. Besides, the “Biodistribution Muscle 30 min” value in data set [4] (BALB/c mice, 30 min, muscle) is recorded as 0.52 ± 0.25 %ID/g. For the same compound, the “Biodistribution Pancreas 30 min” value in data set [4] (BALB/c mice, 30 min, pancreas) was 0.42 ± 0.16 %ID/g. Further, in data set [4] (BALB/c mice, 30 min, spleen), the “Biodistribution Spleen 30 min” value is given as 0.38 ± 0.11 %ID/g. Moreover, the “Biodistribution Stomach 30 min” value in data set [4] (BALB/c mice, 30 min, stomach) is 0.77 ± 0.22 %ID/g. Also, the “Biodistribution Blood 90 min” value in data set [4] (BALB/c mice, 90 min, blood) is 0.06 ± 0.04 %ID/g. The “Biodistribution Femur 90 min” value in data set [4] (BALB/c mice, 90 min, femur) is reported as 0.15 ± 0.20 %ID/g. Besides, in data set [4] (BALB/c mice, 90 min, heart), the “Biodistribution Heart 90 min” value was 0.03 ± 0.01 %ID/g. Further, the “Biodistribution Intestine 90 min” value in data set [4] (BALB/c mice, 90 min, intestine) was 1.03 ± 0.26 %ID/g. In data set [4] (BALB/c mice, 90 min, kidneys), the “Biodistribution Kidneys 90 min” value was 1.27 ± 0.39 %ID/g. In addition, the “Biodistribution Liver 90 min” value in data set [4] (BALB/c mice, 90 min, liver) is on record as 0.15 ± 0.09 %ID/g. In addition, in data set [4] (BALB/c mice, 90 min, lung), the “Biodistribution Lung 90 min” value is given as 0.10 ± 0.03 %ID/g. Also, the “Biodistribution Muscle 90 min” value in data set [4] (BALB/c mice, 90 min, muscle) is reported as 0.03 ± 0.01 %ID/g. Besides, the “Biodistribution Pancreas 90 min” value in data set [4] (BALB/c mice, 90 min, pancreas) is recorded as 0.04 ± 0.01 %ID/g. Further, in data set [4] (BALB/c mice, 90 min, spleen), the “Biodistribution Spleen 90 min” value was 0.05 ± 0.02 %ID/g. The “Biodistribution Stomach 90 min” value in data set [4] (BALB/c mice, 90 min, stomach) was 0.06 ± 0.02 %ID/g. Also, the “Metabolites on excretion through the urinary tract (in words)” value in data set [4] was “no metabolites detected”.
Turning to “triacetylfusarinine C [[Fe]TAFC, reference compound]”, in data set [3], the “Concentration of growth induction / utilization” value turned out to be 0.1 µM and the Concentration of sporulation amounted to 10 µM.
With `CC(=O)NC1CCCN(O)C(=O)/C=C(/C)CCOC(=O)C(NC(=O)CCC(=O)N[C@H](CCCNC(=N)N)C(=O)N[C@H](CCCCN)C(=O)N[C@H](CCCCN)C(=O)N[C@H](Cc2c[nH]c3ccccc23)C(=O)N[C@H](Cc2ccccc2)C(=O)N[C@H](Cc2c[nH]c3ccccc23)C(N)=O)CCCN(O)C(=O)/C=C(/C)CCOC(=O)C(NC(C)=O)CCCN(O)C(=O)/C=C(/C)CCOC1=O` (stereo partly drawn) [[Fe]DAFC-D-PAF26], the “MIC 24 h” value in data set [1] (AMM, 37 °C, 24 h) is above 16 mg/L; in data set [1] (ATCC 46645, 24 h), above 8.4 µM; in data set [2] (0.1 × PDB, 37 °C, 24 h), above 16 mg/L; in data set [2] (ATCC 46645, 24 h), above 8.4 µM. Further, the “MIC 48 h” value is above 16 mg/L in data set [1] (AMM, 37 °C) and above 16 mg/L in data set [2] (0.1 × PDB, 37 °C). For the same compound, the “Growth promotion (in words)” value in data set [3] is given as “low hyphal growth without sporulation”.
`CC(=O)N[C@@H](CC(N)=O)C(=O)N[C@@H](CC(C)C)C(=O)N[C@H](Cc1ccccc1)C(=O)O` [HOOC-NLF-Ac] (Ac-Asn-Leu-[dF]-OH): the “MIC 24 h” value in data set [1] (AMM, 37 °C, 24 h) is above 16 mg/L; in data set [1] (ATCC 46645, 24 h), above 36.8 µM. Further, the “MIC 48 h” value in data set [1] (AMM, 37 °C) was above 16 mg/L.
Take `CC(=O)NC1CCCN(O)C(=O)/C=C(/C)CCOC(=O)C(NC(=O)CCC(=O)N[C@@H](CCCNC(=N)N)C(=O)N[C@@H](CCCCN)C(=O)N[C@@H](CCCCN)C(=O)N[C@@H](Cc2c[nH]c3ccccc23)C(=O)N[C@@H](Cc2ccccc2)C(=O)N[C@@H](Cc2c[nH]c3ccccc23)C(N)=O)CCCN(O)C(=O)/C=C(/C)CCOC(=O)C(NC(C)=O)CCCN(O)C(=O)/C=C(/C)CCOC1=O` (stereo partly drawn) [[Fe]DAFC-L-PAF26]: the “MIC 24 h” value is above 16 mg/L in data set [1] (AMM, 37 °C, 24 h) and above 8.4 µM in data set [1] (ATCC 46645, 24 h). Besides, the “MIC 48 h” value in data set [1] (AMM, 37 °C) was above 16 mg/L. For the same compound, the “Growth promotion (in words)” value in data set [3] was “low hyphal growth without sporulation”.
For `CC(=O)N[C@H](CCCNC(=N)N)C(=O)N[C@H](CCCCN)C(=O)N[C@H](CCCCN)C(=O)N[C@H](Cc1c[nH]c2ccccc12)C(=O)N[C@H](Cc1ccccc1)C(=O)N[C@H](Cc1c[nH]c2ccccc12)C(N)=O` [PAF26, Ac-dArg-dLys-dLys-dTrp-dPhe-dTrp-NH2, reference compound] (Ac-[dR][dK][dK][dW][dF][dW]-NH2), the “MIC / growth inhibition” value in data set [2] (0.1 × PDB, incubation time not given) came to 8 mg/L (≈ 8.07 µM).
For the compound `CC(=O)N[C@@H]1CCCN(O)C(=O)/C=C(/C)CCOC(=O)[C@H](NC(=O)CCC(=O)N[C@@H](CCCNC(=N)N)C(=O)N[C@@H](CCCCN)C(=O)N[C@@H](CCCCN)C(=O)N[C@@H](Cc2c[nH]c3ccccc23)C(=O)N[C@@H](Cc2ccccc2)C(=O)N[C@@H](Cc2c[nH]c3ccccc23)C(N)=O)CCCN(O)C(=O)/C=C(/C)CCOC(=O)[C@H](NC(C)=O)CCCN(O)C(=O)/C=C(/C)CCOC1=O` [[^68Ga]Ga-DAFC-L-PAF26, metal not drawn], in data set [5], the logD – broadly, the decadic logarithm of the distribution of all forms, ionised or not, between an organic phase and buffer at a given pH – was -3.13 ± 0.02. In addition, in the data set with A. fumigatus, the “Uptake into A. fumigatus hyphae normalized to uptake of [68Ga]Ga-TAFC” value is recorded as 90%.
On to `CC(=O)NC1CCCN(O)C(=O)/C=C(/C)CCOC(=O)C(NC(=O)[C@@H](Cc2ccccc2)NC(=O)[C@H](CC(C)C)NC(=O)[C@H](CC(N)=O)NC(C)=O)CCCN(O)C(=O)/C=C(/C)CCOC(=O)C(NC(C)=O)CCCN(O)C(=O)/C=C(/C)CCOC1=O` (some centres unmarked) [[Fe]DAFC-NLF-Ac], for which the “MIC 24 h” value in data set [1] (AMM, 37 °C, 24 h) is above 16 mg/L; in data set [1] (ATCC 46645, 24 h), above 12.5 µM. Moreover, in data set [1] (AMM, 37 °C), the “MIC 48 h” value is above 16 mg/L. The “Antifungal activity lacking up to” value in data set [1] was above 16 µg/mL. For the same compound, the Concentration of sporulation in data set [3] worked out at 50 µM.

Values taken from paper PMC7765500, “Siderophore Scaffold as Carrier for Antifungal Peptides in Therapy of Aspergillus fumigatus Infections” (Journal of Fungi, 2020).
